Measured values as given in EP0672658B1, “Antithrombotic agents” (priority 1994, dated 1995).
Structures can show the parent of a compound that is named as a salt.

Assays:
human or animal plasma [1] = assay: Anticoagulation determination in plasma: activated partial thromboplastin time (APTT); assay type: biochemical; settings: concentration doubling activated partial thromboplastin time
Experimental: (§1) Dog plasma and rat plasma is obtained from conscious mixed-breed hounds (either sex, Hazelton-LRE, Kalamazoo, Michigan, U.S.A.) or from anesthetized male Sprague-Dawley rats (Harlan Sprague-Dawley, Inc., Indianapolis, Indiana, U.S.A.) by venipuncture into 3.8 percent citrate. Fibrinogen is prepared from in-date ACD human blood as the fraction I-2 according to previous procedures and specifications. Smith, Biochem. J., 185, 1-11 (1980); and Smith, et al., Biochemistry, 11, 2958-2967 (1972). Human fibrinogen is also purchased as 98 percent pure/plasmin free from American Diagnostica, Greenwich, Connecticut. Coagulation reagents ACTIN, Thromboplastin, and Human plasma are from Baxter Healthcare Corp., Dade Division, Miami, Florida. Bovine thrombin from Parke-Davis (Ann Detroit, Michigan) is used for coagulation assays in plasma.
(§2) Coagulation assay procedures are as previously described. Smith, et al., Thrombosis Research, 50, 163-174 (1988). A CoAScreener coagulation instrument (American LABor, Inc.) is used for all coagulation assay measurements. The prothrombin time (PT) is measured by adding 0.05 mL saline and 0.05 mL Thromboplastin-C reagent to 0.05 mL test plasma. The activated partial thromboplastin time (APTT) is measured by incubation of 0.05 mL test plasma with 0.05 mL Actin reagent for 120 seconds followed by 0.05 mL CaCl2 (0.02 M). The thrombin time (TT) is measured by adding 0.05 mL saline and 0.05 mL thrombin (10 NIH units/mL) to 0.05 mL test plasma. The compounds of Formula I are added to human or animal plasma over a wide range of concentrations to determine prolongation effects on the APTT, PT, and TT assays. Linear extrapolations are performed to estimate the concentrations required to double the clotting time for each assay.

Trypsin = biological target: T1, Trypsin (Bos taurus, UniProt P00760); assay: biochemical; design: species or system Bovine; settings: read-out: Kass Trypsin (converted)
T1 sequence (P00760 24-246): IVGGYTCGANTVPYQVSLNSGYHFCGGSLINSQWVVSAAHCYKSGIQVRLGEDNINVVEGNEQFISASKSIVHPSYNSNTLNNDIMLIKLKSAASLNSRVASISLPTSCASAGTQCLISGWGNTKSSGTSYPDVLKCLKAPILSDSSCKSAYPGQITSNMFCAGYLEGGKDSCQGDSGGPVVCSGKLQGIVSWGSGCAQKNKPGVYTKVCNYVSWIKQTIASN
Experimental: By substantially following the procedures described above for human thrombin, and using other human blood coagulation system serine proteases and proteases of the fibrinolytic system with the appropriate chromogenic substrates, identified below, selectivity of the compounds of the present invention with respect to the coagulation factor serine proteases and with respect to the fibrinolytic system serine proteases are evaluated as well as their substantial lack of interference with serine proteases of the fibrinolytic system. Thrombin inhibitors preferably should spare fibrinolysis induced by urokinase, tissue plasminogen activator (t-PA) and streptokinase. This would be important to the therapeutic use of such agents as an adjunct to streptokinase, t-PA or urokinase thrombolytic therapy and to the use of such agents as an endogenous fibrinolysis-sparing (with respect to t-PA and urokinase) antithrombotic agent. In addition to the lack of interference with the amidase activity of the fibrinolytic proteases, such fibrinolytic system sparing can be studied by the use of human plasma clots and their lysis by the respective fibrinolytic plasminogen activators.
Human factors X, Xa, IXa, XIa, and XIIa are purchased from Enzyme Research Laboratories, South Bend, Indiana; human urokinase from Leo Pharmaceuticals, Denmark; and recombinant activated Protein C (aPC) is prepared at Eli Lilly and Co. substantially according to U.S. Patent 4,981,952. Chromogenic substrates: N-Benzoyl-Ile-Glu-Gly-Arg-p-nitroanilide (for factor Xa); N-Cbz-D-Arg-Gly-Arg-p-nitroanilide (for factor IXa assay as the factor Xa substrate); Pyroglutamyl-Pro-Arg-p-nitroanilide (for Factor XIa and for aPC); H-D-Pro-Phe-Arg-p-nitroanilide (for factor XIIa); and Pyroglutamyl-Gly-Arg-p-nitroanilide (for urokinase); are purchased from KabiVitrum, Stockholm, Sweden, or from Midwest Biotech, Fishers, Indiana. Bovine trypsin is purchased from Worthington Biochemicals, Freehold, New Jersey, and human plasma kallikrein from Kabi Vitrum, Stockholm, Sweden. Chromogenic substrate H-D-Pro-Phe-Arg-p-nitroanilide for plasma kallikrein is purchased from Kabi Vitrum, Stockholm, Sweden. N-Benzoyl-Phe-Val-Arg-p-nitroanilide, the substrate for human thrombin and for trypsin, is synthesized according to procedures described above for the compounds of the present invention, using known methods of peptide coupling from commercially available reactants or purchased from Midwest Biotech, Fishers, Indiana.

human or animal plasma [2] = assay: Anticoagulation determination in plasma: thrombin time (TT); assay type: biochemical; settings: concentration doubling thrombin time
Experimental: as §1, §2

Human Thrombin = Human Thrombin (Homo sapiens, UniProt P00734); assay: biochemical; settings: read-out: Kass Human Thrombin (converted)
human or animal plasma [3] = assay: Anticoagulation determination in plasma: prothrombin time (PT); assay type: biochemical; settings: concentration doubling prothrombin time
Experimental: as §1, §2

Compound | Kd (Trypsin) [nM] | Kd (Human Thrombin) [nM] | Human Plasma Anticoagulation 2x Clotting time (ng/mL) APTT (human or animal plasma [1]) | Human Plasma Anticoagulation 2x Clotting time (ng/mL) TT (human or animal plasma [2]) | Human Plasma Anticoagulation 2x Clotting time (ng/mL) PT (human or animal plasma [3])
CCS(=O)(=O)N[C@H](Cc1ccccc1)C(=O)N1CCC[C@H]1C(=O)NCCc1cccc(NC(=N)N)c1 [Example 37, EtSO2-D-Phe-Pro-m-NHCH2CH2C6H4NHC(NH)NH2·HCl] | > 111000 | 50000 | >9,000 ng/mL | >9,000 ng/mL | >9,000 ng/mL
Nc1ccc(CNC(=O)[C@@H]2CCCN2C(=O)[C@@H](CC2CCCCC2)NCC(=O)O)cc1 [Example 62, HO2CCH2-D-Cha-Pro-4-NHCH2C6H4NH2·HCl] | – | 132 | – | 54 ng/mL | –
Nc1ccc(CCNC(=O)[C@@H]2CCCN2C(=O)[C@@H](CC2CCCCC2)NCC(=O)O)cc1 [Example 63, HO2CCH2-D-Cha-Pro-4-NHCH2CH2C6H4NH2·HCl] | – | 3230 | – | 680 ng/mL | –
N=C(N)c1ccc(CNC(=O)[C@@H]2CCCN2C(=O)[C@@H](CC2CCCCC2)NCC(=O)O)s1 [Example 65] | 1.75 | – | – | 1 ng/mL | –
N=C(N)c1ccc(CNC(=O)[C@@H]2CCCN2C(=O)[C@@H](CC2CCCCC2)NCC(=O)O)nc1 [Example 66, HO2CCH2-D-Cha-Pro-2-NHCH2-5-amidinopyridine·HCl] | 217 | 8.33 | 180 ng/mL | 7.9 ng/mL | 270 ng/mL
N=C(N)C1CCC(CNC(=O)[C@@H]2CCCN2C(=O)[C@@H](CC2CCCCC2)NCC(=O)O)NC1 (stereo partly drawn) [Example 67, HO2CCH2-D-Cha-Pro-2-NHCH2-5-amidinopiperidine·HCl] | – | 90.9 | 1,800 ng/mL | 34. ng/mL | 1,300 ng/mL
N=C(N)C1=CNC(CNC(=O)[C@@H]2CCCN2C(=O)[C@@H](CC2CCCCC2)NCC(=O)O)CC1 (stereo partly drawn) [Example 68, HO2CCH2-D-Cha-Pro-2-NHCH2-5-amidino-5,6-dehydro-piperidine·HCl] | – | 1.67 | 49 ng/mL | 4. ng/mL | 190 ng/mL
N=C(N)c1ccc(CNC(=O)[C@@H]2CCCN2C(=O)[C@@H](CC2CCCCC2)NCC(=O)O)nn1 [Example 69, HO2CCH2-D-Cha-Pro-3-NHCH2-6-amidinopyridazine·HCl] | 270 | 2.94 | 110 ng/mL | 5. ng/mL | 220 ng/mL
N=C(N)N1CC=C(CNC(=O)[C@@H]2CCCN2C(=O)[C@@H](CC2CCCCC2)NCC(=O)O)CC1 [Example 70, HO2CCH2-D-Cha-Pro-4-NHCH2-1-amidino-3,4-dehydro-piperidine·HCl] | 102 | 2.33 | 160 ng/mL | 2 ng/mL | 180 ng/mL
Nc1cc(CNC(=O)[C@@H]2CCCN2C(=O)[C@@H](CC2CCCCC2)NCC(=O)O)ccn1 [Example 73, HO2CCH2-D-Cha-Pro-4-NHCH2-2-aminopyridine·HCl] | – | 35.7 | 340 ng/mL | 21 ng/mL | 330 ng/mL
Nc1ccc(CNC(=O)[C@@H]2CCCN2C(=O)[C@@H](CC2CCCCC2)NCC(=O)O)cn1 [Example 74, HO2CCH2-D-Cha-Pro-5-NHCH2-2-aminopyridine·HCl] | – | 34.5 | 420 ng/mL | 20 ng/mL | 350 ng/mL
Nc1ccc(CCNC(=O)[C@@H]2CCCN2C(=O)[C@@H](CC2CCCCC2)NCC(=O)O)cn1 [Example 75, HO2CCH2-D-Cha-Pro-5-NHCH2CH2-2-aminopyridine·HCl] | – | 2220 | – | – | –
Nc1cc(CCNC(=O)[C@@H]2CCCN2C(=O)[C@@H](CC2CCCCC2)NCC(=O)O)ccn1 [Example 76, HO2CCH2-D-Cha-Pro-4-NHCH2CH2-2-aminopyridine·HCl] | 2780 | 83.3 | 490 ng/mL | 29 ng/mL | 560 ng/mL

Further lines, with some results ahead:

Kd (Trypsin) [nM] | Kd (Human Thrombin) [nM] | Compound | Human Plasma Anticoagulation 2x Clotting time (ng/mL) APTT (human or animal plasma [1]) | Human Plasma Anticoagulation 2x Clotting time (ng/mL) TT (human or animal plasma [2]) | Human Plasma Anticoagulation 2x Clotting time (ng/mL) PT (human or animal plasma [3])
– | 90.9 | Nc1ccc(CNC(=O)[C@@H]2CCCN2C(=O)[C@@H](CC2CCCCC2)NCC(=O)O)cc1F [Example 77, HO2CCH2-D-Cha-Pro-4-NHCH2-2-F-aniline·HCl] | 1,600 ng/mL | 53 ng/mL | 890 ng/mL
116 | 90.9 | NCc1ccc(CNC(=O)[C@@H]2CCCN2C(=O)[C@@H](CC2CCCCC2)NCC(=O)O)cc1 [Example 78, HO2CCH2-D-Cha-Pro-4-NHCH2C6H4CH2NH2·HCl] | 430 ng/mL | 46 ng/mL | 760 ng/mL
4170 | 500 | NCC1CCC(CNC(=O)[C@@H]2CCCN2C(=O)[C@@H](CC2CCCCC2)NCC(=O)O)CC1 (stereo partly drawn) [Example 79, HO2CCH2-D-Cha-Pro-4-NHCH2C6H10CH2NH2·HCl] | 1,700 ng/mL | 140 ng/mL | 2,400 ng/mL
11.1 | 0.588 | CCS(=O)(=O)N[C@H](CC1CCCCC1)C(=O)N1CCC[C@H]1C(=O)NCc1ccc(C(=N)N)cc1 [Example 80, EtSO2-D-Cha-Pro-4-NHCH2C6H4C(NH)NH2·HCl] | 40 ng/mL | 4 ng/mL | 130 ng/mL
476 | 189 | CCS(=O)(=O)N[C@H](CC1CCCCC1)C(=O)N1CCC[C@H]1C(=O)NCc1ccc(CN)cc1 [Example 81, EtSO2-D-Cha-Pro-4-NHCH2C6H4CH2NH2·HCl] | 1,500 ng/mL | 110 ng/mL | 2,700 ng/mL
– | 200 | CCS(=O)(=O)N[C@H](CC1CCCCC1)C(=O)N1CCC[C@H]1C(=O)NCc1ccc(N)cc1F [Example 82, EtSO2-D-Cha-Pro-4-NHCH2-3-F-C6H3NH2·HCl] | 3,800 ng/mL | 130 ng/mL | 3,000 ng/mL
